These results are taken from patent publication US20110152373A1, “HAIR GROWTH PROMOTING AGENT CONTAINING 15,15-DIFLUOROPROSTAGLANDIN F2ALPHA DERIVATIVE AS ACTIVE INGREDIENT” (SANTAN PHARMACEUTICAL CO., LTD., priority 2008, published 2011).

In the assay the test system is eyelashes of patients with open-angle glaucoma or ocular hypertension. As to the kind of experiment: European Phase III clinical trial: eyelash findings from photographs compared with base line. The class given is in vivo, human. As to conditions: for Color of eyelashes was changed (number of patients with finding) / Eyelashes were grown (number of patients with finding) / Eyelashes were made thicker (number of patients with finding): eye drop (0.0015% tafluprost or 0.005% latanoprost) once a day, one drop, total 264 patients per group. The protocol:
A European Phase III clinical trial for tafluprost, one of the 15,15-difluoroprostaglandin F2α derivatives, with patients with open-angle glaucoma or ocular hypertension was performed by the following test method, and tafluprost was evaluated for findings associated with the eyelashes and an peripheral area thereof, that is, the evaluation was performed as to whether eyelashes were grown, eyelashes were made thicker, and the color of eyelashes was changed by the following evaluation method.
Patients with open-angle glaucoma or ocular hypertension were randomly allocated to two groups (a 0.0015% tafluprost eye drop group and a 0.005% latanoprost eye drop group) and received the eye drop once a day at a dose of one drop for 24 months in a double-blind manner after a washout period for 5 days to 4 weeks or more according to need prior to the glaucoma medication.
The eyelashes and eyelids were photographed at 0 (base line), 3, 6, 12, 18, and 24 months, and the photographs were compared with the base line, and the presence or absence of findings (eyelashes were grown, eyelashes were made thicker, and the color of eyelashes was changed) was confirmed.

Take `CC(C)OC(=O)CCC/C=C\C[C@@H]1[C@@H](/C=C/C(F)(F)COc2ccccc2)[C@H](O)C[C@@H]1O` [Tafluprost, tafluprost]: the “Effect of promoting the growth of hair (eyelashes), in words” value (0.0015% eye drop once a day for 24 months, conclusion from Table 1) was “has actions of growing eyelashes, making eyelashes thicker, and changing the color thereof”. The “Eyelash actions compared with those of latanoprost, in words” value (0.0015% tafluprost eye drop vs 0.005% latanoprost eye drop, 24 months) is listed as “significant effects as compared with those of latanoprost”. Further, where the note is “24 months”, the “Color of eyelashes was changed (number of patients with finding)” value amounted to 13 patients, the “Eyelashes were grown (number of patients with finding)” value is 17 patients and the “Eyelashes were made thicker (number of patients with finding)” value came to 5 patients.

In the case of `CC(C)OC(=O)CCC/C=C\C[C@@H]1[C@@H](CC[C@@H](O)CCc2ccccc2)[C@H](O)C[C@@H]1O` [Latanoprost, latanoprost, reference compound], under “24 months”, the “Color of eyelashes was changed (number of patients with finding)” value is recorded as 10 patients, the “Eyelashes were grown (number of patients with finding)” value is listed as 11 patients and the “Eyelashes were made thicker (number of patients with finding)” value is on record as 4 patients.
